Assay results taken from patent publication US6737383B1, “Herbicidal oxadiazolidines” (priority 1999, dated 2004).

How the values were obtained:
rape [1] = assay: Test E rape; type: in vivo, Brassica napus; details: Preemergence
rape [2] = assay: Test E rape; type: in vivo, Brassica napus; details: Postemergence
Procedure: […] A mixture of sandy loam soil and greenhouse potting mix in a 60:40 ratio was used for the postemergence test.
(§1) Plantings of these crops and weed species were adjusted to produce plants of appropriate size for the postemergence test. All plant species were grown using normal greenhouse practices. Crop and weed species include annual bluegrass (Poa annua), blackgrass (Alopecurus myosuroides), black nightshade (Solanum nigra), chickweed (Stellaria media), common poppy (Papaver rhoeas), deadnettle (Lamium amplexicaule), downy brome (Bromus tectorum), field violet (Viola arvensis), galium (Galium aparine), green foxtail (Setaria viridis), Italian ryegrass (Lolium multiflorum), jointed goatgrass (Aegilops cylindrica), kochia (Kochia scoparia), lambsquarters (Chenopodium album), littleseed canarygrass (Phalaris minor), rape (Brassica napus), redroot pigweed (Amaranthus retroflexus), Russian thistle (Salsola kali), scentless chamomile (Matricaria inodora), spring barley (Hordeum vulgare), sugar beet (Beta vulgaris), sunflower (Helianthus annuus), ivyleaf speedwell (Veronica hederaefolia), spring wheat (Triticum aestivum), winter wheat (Triticum aestivum), wild buckwheat (Polygonum convolvulus), wild mustard (Sinapis arvensis), wild oat (Avena fatua), windgrass (Apera spica-venti) and winter barley (Hordeum vulgare).
(§2) Treated plants and untreated controls were maintained in a greenhouse for approximately 21 to 28 days, after which all treated plants were compared to untreated controls and visually evaluated. […] A dash response (-) means no test result.

jointed goatgrass = assay: Test E jointed goatgrass; type: in vivo, Aegilops cylindrica; details: Preemergence
black nightshade = assay: Test E black nightshade; type: in vivo, Solanum nigra; details: Postemergence
How it was run: (§3)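 For postemergence, plants at the 1- to 4-leaf stage, in a 60:40 mix of sandy loam and potting mix, treated with compound formulated in a surfactant-containing non-phytotoxic solvent. Visual assessment versus untreated controls followed roughly 21–28 days in the greenhouse.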

sunflower = assay: Test E sunflower; type: in vivo, Helianthus annuus; details: Postemergence
How it was run: as §3

barnyardgrass = assay: Test C postemergence barnyardgrass; type: in vivo, Echinochloa crus-galli; details: 0 to 100 scale, 0 no effect, 100 complete control
How it was run: (§4)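 Compounds in a non-phytotoxic solvent mixture with surfactant were sprayed postemergence on greenhouse-grown plants sized for treatment, in 60:40 sandy loam soil:potting mix. After about 14 to 21 days, injury was rated visually against untreated controls on a 0–100 scale (0 no effect, 100 complete control).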

soybean = assay: Test C postemergence soybean; type: in vivo, Glycine max; details: 0 to 100 scale, 0 no effect, 100 complete control
How it was run: as §4

common ragweed = assay: Test C postemergence common ragweed; type: in vivo, Ambrosia elatior; details: 0 to 100 scale, 0 no effect, 100 complete control
How it was run: as §4

ivyleaf morningglory = assay: Test C postemergence ivyleaf morningglory; type: in vivo, Ipomoea hederacea; details: 0 to 100 scale, 0 no effect, 100 complete control
Procedure: (§5) Compounds evaluated in this test were formulated in a non-phytotoxic solvent mixture which included a surfactant and applied to plants that were grown for various periods of time before treatment (postemergence application). A mixture of sandy loam soil and greenhouse potting mix in a 60:40 ratio was used for the postemergence test.
(§6) Plantings of these crops and weed species were adjusted to produce plants of appropriate size for the postemergence test. All plant species were grown using normal greenhouse practices. Crop and weed species include arrowleaf sida (Sida rhombifolia), barnyardgrass (Echinochloa crus-galli), cocklebur (Xanthium strumarium), common ragweed (Ambrosia elatior), corn (Zea mays), cotton (Gossypium hirsutum), eastern black nightshade (Solanum ptycanthum), fall panicum (Panicum dichotomiflorum), field bindweed (Convolvulus arvensis), giant foxtail (Setaria faberii), hairy beggarticks (Bidens pilosa), ivyleaf morningglory (Ipomoea hederacea), johnsongrass (Sorghum halepense), ladysthumb smartweed (Polygonum persicaria), lambsquarters (Chenopodium album), large crabgrass (Digitaria sanguinalis), purple nutsedge (Cyperus rotundus), redroot pigweed (Amaranthus retroflexus), soybean (Glycine max), surinam grass (Brachiaria decumbens), velvetleaf (Abutilon theophrasti) and wild poinsettia (Euphorbia heterophylla).
(§7) Treated plants and untreated controls were maintained in a greenhouse for approximately 14, to 21 days, after which all treated plants were compared to untreated controls and visually evaluated. Plant response ratings, summarized in Table C, were based upon a 0 to 100 scale where 0 was no effect and 100 was complete control. A dash response (−) means no test result.

corn = assay: Test C postemergence corn; type: in vivo, Zea mays; details: 0 to 100 scale, 0 no effect, 100 complete control
Procedure: as §5, §6, §7

ivyleaf speedwell = assay: Test E postemergence ivyleaf speedwell; type: in vivo, Veronica hederaefolia
Procedure: as §5, with “in the 1- to 4-leaf stage” for “grown for various periods of time before treatment”
as §1, §2

Russian thistle = assay: Test E Russian thistle; type: in vivo, Salsola kali; details: Preemergence
field violet = assay: Test E field violet; type: in vivo, Viola arvensis; details: Preemergence
lambsquarters = assay: Test C postemergence lambsquarters; type: in vivo, Chenopodium album; details: 0 to 100 scale, 0 no effect, 100 complete control
How it was run: as §4

morningglory = assay: Test A morningglory; type: in vivo, Ipomoea spp.; details: 0 to 10 scale where 0 is no effect and 10 is complete control
How it was run: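 Ratings came from visual comparison with untreated plants about eleven days after treatment, scored 0 for no effect through 10 for complete control. Both soil-drench preemergence and runoff-spray postemergence applications were made at the same time.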

[3] = Rate 62 g/ha, 0 to 100 scale, 0 no effect, 100 complete control
[4] = Rate 125 g/ha, 0 to 100 scale (0 no effect, 100 complete control)
[5] = Rate 250 g/ha, 0 to 100 scale (0 no effect, 100 complete control)
[6] = Rate 500 g/ha, 0 to 100 scale where 0 is no effect and 100 is complete control
[7] = Rate 500 g/ha, 0 to 100 scale, 0 no effect, 100 complete control

CCn1c(=O)on(C(=O)N(c2ccc(F)cc2)C(C)C)c1=O [Compound 107]
Plant response rating, Rape (rape [1]; [3]): 60
Plant response rating, Rape (rape [1]; [4]): 70
Plant response rating, Rape (rape [1]; Rate 250 g/ha, 0 to 100 scale): 100
Plant response rating, Rape (rape [2]; Rate 62 g/ha, 0 to 100 scale): 20
Plant response rating, Rape (rape [2]; Rate 125 g/ha, 0 to 100 scale): 30
Plant response rating, Rape (rape [2]; [5]): 50
Plant response rating, Jointed goatgra (jointed goatgrass; [3]): 40
Plant response rating, Jointed goatgra (jointed goatgrass; [4]): 50
Plant response rating, Jointed goatgra (jointed goatgrass; Rate 250 g/ha, 0 to 100 scale): 50
Plant response rating, Blk nightshade (black nightshade; Rate 62 g/ha, 0 to 100 scale): 10
Plant response rating, Blk nightshade (black nightshade; Rate 125 g/ha, 0 to 100 scale): 30
Plant response rating, Blk nightshade (black nightshade; [5]): 60
Plant response rating, Sunflower (sunflower; Rate 62 g/ha, 0 to 100 scale): 10
Plant response rating, Sunflower (sunflower; Rate 125 g/ha, 0 to 100 scale): 20
Plant response rating, Sunflower (sunflower; [5]): 30
Plant response rating, Barnyardgrass (barnyardgrass; Rate 140 g/ha): 70
Plant response rating, Barnyardgrass (barnyardgrass; Rate 280 g/ha): 85
Plant response rating, Barnyardgrass (barnyardgrass; Rate 560 g/ha): 90
Plant response rating, Barnyardgrass (barnyardgrass; Rate 1120 g/ha): 95
Plant response rating, Soybean (soybean; Rate 140 g/ha): 45
Plant response rating, Soybean (soybean; Rate 280 g/ha): 70
Plant response rating, Soybean (soybean; Rate 560 g/ha): 85
Plant response rating, Soybean (soybean; Rate 1120 g/ha): 85
Plant response rating Common ragweed (common ragweed; Rate 140 g/ha): 0
Plant response rating Common ragweed (common ragweed; Rate 280 g/ha): 50
Plant response rating Common ragweed (common ragweed; Rate 560 g/ha): 50
Plant response rating Common ragweed (common ragweed; Rate 1120 g/ha): 50
Plant response rating I. morningglory (ivyleaf morningglory; Rate 140 g/ha): 10
Plant response rating I. morningglory (ivyleaf morningglory; Rate 280 g/ha): 30
Plant response rating I. morningglory (ivyleaf morningglory; Rate 560 g/ha): 30
Plant response rating I. morningglory (ivyleaf morningglory; Rate 1120 g/ha): 95
Plant response rating, Corn (corn; Rate 140 g/ha): 0
Plant response rating, Corn (corn; Rate 280 g/ha): 5
Plant response rating, Corn (corn; Rate 560 g/ha): 55
Plant response rating, Corn (corn; Rate 1120 g/ha): 60
Plant response rating, Veronica hedera (ivyleaf speedwell; Rate 62 g/ha, 0 to 100 scale): 10
Plant response rating, Veronica hedera (ivyleaf speedwell; Rate 125 g/ha, 0 to 100 scale): 0
Plant response rating, Veronica hedera (ivyleaf speedwell; [5]): 10
Plant response rating, Russian thistle (Russian thistle; [3]): 0
Plant response rating, Russian thistle (Russian thistle; [4]): 0
Plant response rating, Russian thistle (Russian thistle; Rate 250 g/ha, 0 to 100 scale): 10
Plant response rating, Field violet (field violet; [3]): 70
Plant response rating, Field violet (field violet; [4]): 30
Plant response rating, Field violet (field violet; Rate 250 g/ha, 0 to 100 scale): 20
Plant response rating, Lambsquarters (lambsquarters; Rate 140 g/ha): 0
Plant response rating, Lambsquarters (lambsquarters; Rate 280 g/ha): 0
Plant response rating, Lambsquarters (lambsquarters; Rate 560 g/ha): 40
Plant response rating, Lambsquarters (lambsquarters; Rate 1120 g/ha): 40

CCn1c(=O)on(C(=O)N(c2ccc(F)cc2F)C(C)C)c1=O [Compound 116]
Plant response rating, Rape (rape [1]; [4]): 60
Plant response rating, Rape (rape [1]; Rate 250 g/ha, 0 to 100 scale): 100
Plant response rating, Rape (rape [1]; [6]): 100
Plant response rating, Rape (rape [2]; Rate 62 g/ha, 0 to 100 scale): 10
Plant response rating, Rape (rape [2]; Rate 125 g/ha, 0 to 100 scale): 0
Plant response rating, Rape (rape [2]; [5]): 0
Plant response rating, Rape (rape [2]; [7]): 30
Plant response rating, Jointed goatgra (jointed goatgrass; [4]): 30
Plant response rating, Jointed goatgra (jointed goatgrass; Rate 250 g/ha, 0 to 100 scale): 100
Plant response rating, Jointed goatgra (jointed goatgrass; [6]): 65
Plant response rating, Blk nightshade (black nightshade; Rate 62 g/ha, 0 to 100 scale): 10
Plant response rating, Blk nightshade (black nightshade; Rate 125 g/ha, 0 to 100 scale): 50
Plant response rating, Blk nightshade (black nightshade; [5]): 50
Plant response rating, Blk nightshade (black nightshade; [7]): 60
Plant response rating, Sunflower (sunflower; Rate 62 g/ha, 0 to 100 scale): 20
Plant response rating, Sunflower (sunflower; Rate 125 g/ha, 0 to 100 scale): 0
Plant response rating, Sunflower (sunflower; [5]): 0
Plant response rating, Sunflower (sunflower; [7]): 0
Plant response rating, Barnyardgrass (barnyardgrass; Rate 140 g/ha): 55
Plant response rating, Barnyardgrass (barnyardgrass; Rate 280 g/ha): 85
Plant response rating, Barnyardgrass (barnyardgrass; Rate 560 g/ha): 90
Plant response rating, Barnyardgrass (barnyardgrass; Rate 1120 g/ha): 90
Plant response rating, Soybean (soybean; Rate 140 g/ha): 10
Plant response rating, Soybean (soybean; Rate 280 g/ha): 10
Plant response rating, Soybean (soybean; Rate 560 g/ha): 30
Plant response rating, Soybean (soybean; Rate 1120 g/ha): 40
Plant response rating Common ragweed (common ragweed; Rate 140 g/ha): 0
Plant response rating Common ragweed (common ragweed; Rate 280 g/ha): 0
Plant response rating Common ragweed (common ragweed; Rate 560 g/ha): 0
Plant response rating Common ragweed (common ragweed; Rate 1120 g/ha): 0
Plant response rating I. morningglory (ivyleaf morningglory; Rate 140 g/ha): 0
Plant response rating I. morningglory (ivyleaf morningglory; Rate 280 g/ha): 0
Plant response rating I. morningglory (ivyleaf morningglory; Rate 560 g/ha): 0
Plant response rating I. morningglory (ivyleaf morningglory; Rate 1120 g/ha): 20
Plant response rating, Corn (corn; Rate 140 g/ha): 0
Plant response rating, Corn (corn; Rate 280 g/ha): 0
Plant response rating, Corn (corn; Rate 560 g/ha): 15
Plant response rating, Corn (corn; Rate 1120 g/ha): 20
Plant response rating, Veronica hedera (ivyleaf speedwell; Rate 125 g/ha, 0 to 100 scale): 0
Plant response rating, Veronica hedera (ivyleaf speedwell; [5]): 0
Plant response rating, Veronica hedera (ivyleaf speedwell; [7]): 70
Plant response rating, Russian thistle (Russian thistle; [4]): 0
Plant response rating, Russian thistle (Russian thistle; Rate 250 g/ha, 0 to 100 scale): 0
Plant response rating, Russian thistle (Russian thistle; [6]): 50
Plant response rating, Field violet (field violet; [4]): 50
Plant response rating, Field violet (field violet; Rate 250 g/ha, 0 to 100 scale): 40
Plant response rating, Field violet (field violet; [6]): 90
Plant response rating, Lambsquarters (lambsquarters; Rate 140 g/ha): 0
Plant response rating, Lambsquarters (lambsquarters; Rate 560 g/ha): 0
Plant response rating, Lambsquarters (lambsquarters; Rate 1120 g/ha): 0

CCOC(=O)Cn1c(=O)on(C(=O)N(c2ccc(F)cc2)C(C)C)c1=O [Compound 128]
Plant response rating, Morningglory (morningglory; Postemergence, Rate 1000 g/ha): 0
Plant response rating, Morningglory (morningglory; Pre-emergence, Rate 2000 g/ha): 0

Cc1ccccc1Cn1c(=O)on(C(=O)N(c2ccc(Cl)cc2)C(C)C)c1=O [Compound 136]
Plant response rating, Morningglory (morningglory; Postemergence, Rate 1000 g/ha): 9
Plant response rating, Morningglory (morningglory; Pre-emergence, Rate 2000 g/ha): 0
